Source: patent publication US12565473B2, “Coating composition” (priority 2020, dated 2026)

Columns and labels:
[1] = test system: mouse embryonic stem (mES) reporter cell lines; settings: Bscl2 and Rtkn, absence and presence of S9
Rtkn = assay: ToxTracker genotoxicity assay, Rtkn-GFP reporter induction
Bscl2 = assay: ToxTracker genotoxicity assay, Bscl2-GFP reporter induction
[2] = with S9 rat liver extract, 3 h exposure and 24 h recovery, at 10% cytotoxicity
[3] = with S9 rat liver extract, 3 h exposure and 24 h recovery, at 25% cytotoxicity
[4] = with S9 rat liver extract, 3 h exposure and 24 h recovery, at 50% cytotoxicity
[5] = without S9 rat liver extract, 24 h exposure, at 10% cytotoxicity
[6] = without S9 rat liver extract, 24 h exposure, at 25% cytotoxicity
[7] = without S9 rat liver extract, 24 h exposure, at 50% cytotoxicity

Row | SMILES | Genotoxicity test result (overall conclusion) [1] | Rtkn GFP reporter induction level (Rtkn; [2]) | Rtkn GFP reporter induction level (Rtkn; [3]) | Rtkn GFP reporter induction level (Rtkn; [4]) | Rtkn GFP reporter induction level (Rtkn; [5]) | Rtkn GFP reporter induction level (Rtkn; [6]) | Rtkn GFP reporter induction level (Rtkn; [7]) | Bscl 2 GFP reporter induction level (Bscl2; [2]) | Bscl 2 GFP reporter induction level (Bscl2; [3]) | Bscl 2 GFP reporter induction level (Bscl2; [4]) | Bscl 2 GFP reporter induction level (Bscl2; [5]) | Bscl 2 GFP reporter induction level (Bscl2; [6]) | Bscl 2 GFP reporter induction level (Bscl2; [7])
1 | CCCCOCC(CN1CC1C)OC(=O)NCCCCCCn1c(=O)n(CCCCCCNC(=O)OC(COCCCC)CN2CC2C)c(=O)n(CCCCCCNC(=O)OC(COCCCC)CN2CC2C)c1=O (centres unmarked) [Composition 1] | non-genotoxic | 0.9 | 0.8 | 0.6 | 0.8 | 0.8 | 0.6 | 1.0 | 1.0 | 0.9 | 1.1 | 1.1 | 1.1
2 | CCCCOCC(CN1CC1C)OC(=O)NCCCCCCn1c(=O)n(CCCCCCNC(=O)OC(COCCCC)CN2CC2C)c(=O)n(CCCCCCNC(=O)OC(COCCCC)CN2CC2C)c1=O (centres unmarked) [Composition 21] | non-genotoxic | 1.1 | 1.0 | 0.9 | 1.1 | 1.0 | 0.9 | 1.0 | 0.9 | 0.7 | 1.1 | 1.1 | 0.9
